The source of these data is patent publication US12275731B2, “Azaindole inhibitors of wild-type and mutant forms of LRRK2” (DANA-FARBER CANCER INSTITUTE, INC., priority 2018, dated 2025).

Common to all, as to assay: KinomeScan profiling
Holding throughout (format): binding

One experiment has as its target T1, BMPR1A (Homo sapiens, UniProt P36894).
T1 construct: purchased KinomeScan®
To be noted: read-out: % control. An outline of the steps:
(§1)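 Percent-of-control values derive from RLU, calculated as (test − positive)/(negative − positive) × 100, where DMSO defines 100% and a positive control compound defines 0%. Each compound was tested at 1 μM in the 468-kinase panel; sub-35% readings indicate activity.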

For the next experiment, the target named is T2, BMPR2 (Homo sapiens, UniProt Q13873).
T2 construct: purchased KinomeScan®
T2 sequence (Q13873 27-1038): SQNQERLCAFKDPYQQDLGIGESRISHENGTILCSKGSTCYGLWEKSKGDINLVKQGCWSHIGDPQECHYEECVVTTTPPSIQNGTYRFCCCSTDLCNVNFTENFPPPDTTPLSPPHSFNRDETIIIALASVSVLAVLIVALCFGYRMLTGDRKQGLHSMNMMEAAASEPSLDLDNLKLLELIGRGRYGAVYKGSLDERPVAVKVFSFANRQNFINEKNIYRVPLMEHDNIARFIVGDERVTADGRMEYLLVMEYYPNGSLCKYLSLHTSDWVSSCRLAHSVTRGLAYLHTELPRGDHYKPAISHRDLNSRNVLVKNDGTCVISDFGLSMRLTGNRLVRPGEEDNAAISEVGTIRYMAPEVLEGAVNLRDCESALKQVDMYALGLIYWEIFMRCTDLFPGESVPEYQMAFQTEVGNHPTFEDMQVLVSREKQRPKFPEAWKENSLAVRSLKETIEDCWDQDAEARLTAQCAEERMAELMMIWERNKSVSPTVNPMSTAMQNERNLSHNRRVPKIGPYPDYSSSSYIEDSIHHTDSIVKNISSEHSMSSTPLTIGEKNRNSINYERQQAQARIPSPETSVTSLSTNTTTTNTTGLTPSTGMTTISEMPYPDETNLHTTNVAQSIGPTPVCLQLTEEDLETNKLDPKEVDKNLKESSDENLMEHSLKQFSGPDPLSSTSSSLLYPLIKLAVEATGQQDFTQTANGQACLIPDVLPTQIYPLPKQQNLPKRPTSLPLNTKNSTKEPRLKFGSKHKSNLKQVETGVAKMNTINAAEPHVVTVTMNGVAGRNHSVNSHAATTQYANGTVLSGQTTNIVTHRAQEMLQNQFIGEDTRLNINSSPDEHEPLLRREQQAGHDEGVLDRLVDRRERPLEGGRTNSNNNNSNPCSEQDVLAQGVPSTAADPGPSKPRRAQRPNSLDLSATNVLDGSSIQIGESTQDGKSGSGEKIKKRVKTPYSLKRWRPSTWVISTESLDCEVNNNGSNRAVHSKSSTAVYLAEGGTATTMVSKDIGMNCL
To be noted: BMPR2, 1 μM; read-out: % control. An outline of the steps: as §1

A further experiment addresses CAMK2A (Homo sapiens, UniProt Q9UQM7). The note with it: read-out: % control. An outline of the steps:
as §1

The target of another experiment is LIMK1 (Homo sapiens, UniProt P53667). To be noted: LIMK1, 1 μM; read-out: % control. An outline of the steps: as §1
LIMK1, sequence (P53667 whole entry): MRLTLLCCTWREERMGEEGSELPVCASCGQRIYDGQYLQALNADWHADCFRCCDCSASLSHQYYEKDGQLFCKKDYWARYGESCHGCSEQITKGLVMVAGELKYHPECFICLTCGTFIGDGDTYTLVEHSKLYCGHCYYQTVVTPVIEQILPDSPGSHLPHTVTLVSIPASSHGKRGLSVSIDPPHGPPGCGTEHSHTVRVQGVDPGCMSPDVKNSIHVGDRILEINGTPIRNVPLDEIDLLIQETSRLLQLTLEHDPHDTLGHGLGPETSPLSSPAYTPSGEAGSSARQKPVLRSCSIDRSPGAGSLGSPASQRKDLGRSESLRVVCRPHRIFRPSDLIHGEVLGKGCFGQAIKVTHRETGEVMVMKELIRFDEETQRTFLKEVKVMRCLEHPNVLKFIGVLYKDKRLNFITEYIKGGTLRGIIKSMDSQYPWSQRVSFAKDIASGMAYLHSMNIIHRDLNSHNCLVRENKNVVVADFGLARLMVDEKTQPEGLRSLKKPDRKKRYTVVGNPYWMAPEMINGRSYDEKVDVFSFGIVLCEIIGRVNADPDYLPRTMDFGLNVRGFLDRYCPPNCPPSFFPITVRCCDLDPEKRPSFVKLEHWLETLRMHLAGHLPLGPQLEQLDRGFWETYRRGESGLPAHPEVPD
In a further experiment the target is MARK3 (Homo sapiens, UniProt P27448). To be noted: MARK3, 1 μM; read-out: % control. An outline of the steps: as §1
MARK3, sequence (P27448 whole entry): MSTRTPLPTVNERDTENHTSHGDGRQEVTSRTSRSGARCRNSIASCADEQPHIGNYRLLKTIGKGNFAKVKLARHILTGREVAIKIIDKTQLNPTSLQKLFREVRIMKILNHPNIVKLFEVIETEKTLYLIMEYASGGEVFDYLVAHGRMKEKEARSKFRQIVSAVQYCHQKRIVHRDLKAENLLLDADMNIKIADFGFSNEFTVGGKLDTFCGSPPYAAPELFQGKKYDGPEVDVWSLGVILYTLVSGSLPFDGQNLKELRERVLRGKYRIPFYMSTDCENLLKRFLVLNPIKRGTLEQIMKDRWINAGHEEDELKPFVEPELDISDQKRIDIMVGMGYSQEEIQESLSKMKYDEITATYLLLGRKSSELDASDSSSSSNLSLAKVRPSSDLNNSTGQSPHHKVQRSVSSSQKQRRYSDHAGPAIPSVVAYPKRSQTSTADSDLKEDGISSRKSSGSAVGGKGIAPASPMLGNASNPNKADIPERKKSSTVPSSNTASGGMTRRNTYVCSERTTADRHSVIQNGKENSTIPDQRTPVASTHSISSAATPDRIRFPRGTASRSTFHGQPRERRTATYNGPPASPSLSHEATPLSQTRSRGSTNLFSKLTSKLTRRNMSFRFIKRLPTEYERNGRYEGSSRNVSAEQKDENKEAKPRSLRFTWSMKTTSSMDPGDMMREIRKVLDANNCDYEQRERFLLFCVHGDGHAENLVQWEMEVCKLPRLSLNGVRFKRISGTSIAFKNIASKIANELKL
The target of the next experiment is T3, NEK5 (Homo sapiens, UniProt Q6P3R8).
T3 sequence (Q6P3R8 1-708): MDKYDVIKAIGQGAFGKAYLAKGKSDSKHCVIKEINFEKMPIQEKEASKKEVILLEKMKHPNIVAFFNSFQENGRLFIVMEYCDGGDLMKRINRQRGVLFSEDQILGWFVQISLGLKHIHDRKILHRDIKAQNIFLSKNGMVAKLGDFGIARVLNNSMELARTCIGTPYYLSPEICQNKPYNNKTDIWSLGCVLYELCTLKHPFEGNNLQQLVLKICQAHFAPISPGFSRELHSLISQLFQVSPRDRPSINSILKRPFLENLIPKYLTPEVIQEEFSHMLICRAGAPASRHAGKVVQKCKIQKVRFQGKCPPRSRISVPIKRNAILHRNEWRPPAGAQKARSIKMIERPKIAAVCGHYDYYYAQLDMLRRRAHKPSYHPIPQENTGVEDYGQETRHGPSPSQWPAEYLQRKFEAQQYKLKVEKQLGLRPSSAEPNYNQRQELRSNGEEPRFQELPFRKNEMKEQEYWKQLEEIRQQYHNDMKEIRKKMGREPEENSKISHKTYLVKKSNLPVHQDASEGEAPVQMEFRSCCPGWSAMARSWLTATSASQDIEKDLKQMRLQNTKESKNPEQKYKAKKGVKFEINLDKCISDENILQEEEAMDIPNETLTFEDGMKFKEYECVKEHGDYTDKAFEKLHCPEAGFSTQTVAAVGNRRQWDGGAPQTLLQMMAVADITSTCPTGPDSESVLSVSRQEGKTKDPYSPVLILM
The note with it: NEK5, 1 μM; read-out: % control. An outline of the steps:
as §1

The next experiment deals with T4, PIK3CA(E545K) (Homo sapiens, UniProt P42336, E545K).
T4 construct: purchased KinomeScan® (panel service)
T4 sequence (P42336 whole entry E545K): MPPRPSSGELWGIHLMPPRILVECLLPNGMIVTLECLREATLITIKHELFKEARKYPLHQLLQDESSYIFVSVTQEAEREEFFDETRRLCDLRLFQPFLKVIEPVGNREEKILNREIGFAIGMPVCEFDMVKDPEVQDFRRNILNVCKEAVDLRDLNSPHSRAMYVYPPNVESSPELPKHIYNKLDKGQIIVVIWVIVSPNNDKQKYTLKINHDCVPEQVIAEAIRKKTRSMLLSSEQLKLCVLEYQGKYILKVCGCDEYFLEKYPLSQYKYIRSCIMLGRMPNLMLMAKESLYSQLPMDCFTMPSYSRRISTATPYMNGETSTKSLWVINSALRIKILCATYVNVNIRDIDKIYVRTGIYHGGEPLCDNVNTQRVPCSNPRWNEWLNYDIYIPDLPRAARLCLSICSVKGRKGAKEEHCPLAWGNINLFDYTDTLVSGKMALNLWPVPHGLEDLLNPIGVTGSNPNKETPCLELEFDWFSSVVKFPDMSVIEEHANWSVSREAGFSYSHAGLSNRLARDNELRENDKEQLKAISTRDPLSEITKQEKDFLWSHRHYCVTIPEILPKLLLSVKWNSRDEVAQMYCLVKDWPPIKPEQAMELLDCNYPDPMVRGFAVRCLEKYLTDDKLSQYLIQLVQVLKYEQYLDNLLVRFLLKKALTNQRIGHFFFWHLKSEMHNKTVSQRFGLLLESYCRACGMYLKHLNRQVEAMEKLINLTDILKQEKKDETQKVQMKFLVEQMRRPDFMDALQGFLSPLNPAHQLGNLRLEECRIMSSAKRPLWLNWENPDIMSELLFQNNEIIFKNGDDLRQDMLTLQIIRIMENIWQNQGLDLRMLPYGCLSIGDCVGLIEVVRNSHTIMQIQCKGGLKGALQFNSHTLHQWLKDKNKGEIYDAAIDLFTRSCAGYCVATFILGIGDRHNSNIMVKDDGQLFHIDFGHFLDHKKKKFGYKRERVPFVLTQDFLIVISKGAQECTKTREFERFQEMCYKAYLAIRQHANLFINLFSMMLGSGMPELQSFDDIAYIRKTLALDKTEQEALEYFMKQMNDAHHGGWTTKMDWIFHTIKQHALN
The note with it: read-out: % control. An outline of the steps:
as §1

The target in a further experiment is T5, PIM3 (Homo sapiens, UniProt Q86V86).
T5 construct: purchased KinomeScan® (panel service)
To be noted: PIM3, 1 μM; read-out: % control. An outline of the steps:
as §1

For a further experiment, the target named is WNK1 (Homo sapiens, UniProt Q9H4A3). The note with it: WNK1, 1 μM; read-out: % control. An outline of the steps: as §1

CAMK2A, sequence (Q9UQM7 whole entry): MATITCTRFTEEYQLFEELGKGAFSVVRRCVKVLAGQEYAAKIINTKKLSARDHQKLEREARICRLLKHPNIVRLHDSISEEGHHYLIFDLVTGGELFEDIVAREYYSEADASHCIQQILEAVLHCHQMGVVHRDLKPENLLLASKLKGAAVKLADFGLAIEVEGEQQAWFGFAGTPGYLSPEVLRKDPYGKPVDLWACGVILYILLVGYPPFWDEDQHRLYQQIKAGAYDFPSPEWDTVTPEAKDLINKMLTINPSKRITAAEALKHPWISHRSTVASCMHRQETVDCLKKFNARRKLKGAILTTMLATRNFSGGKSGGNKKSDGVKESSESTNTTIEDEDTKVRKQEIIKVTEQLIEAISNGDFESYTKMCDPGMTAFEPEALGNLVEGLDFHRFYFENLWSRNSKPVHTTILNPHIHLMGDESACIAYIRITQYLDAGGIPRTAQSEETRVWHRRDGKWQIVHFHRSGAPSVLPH
T1 sequence (P36894 24-532): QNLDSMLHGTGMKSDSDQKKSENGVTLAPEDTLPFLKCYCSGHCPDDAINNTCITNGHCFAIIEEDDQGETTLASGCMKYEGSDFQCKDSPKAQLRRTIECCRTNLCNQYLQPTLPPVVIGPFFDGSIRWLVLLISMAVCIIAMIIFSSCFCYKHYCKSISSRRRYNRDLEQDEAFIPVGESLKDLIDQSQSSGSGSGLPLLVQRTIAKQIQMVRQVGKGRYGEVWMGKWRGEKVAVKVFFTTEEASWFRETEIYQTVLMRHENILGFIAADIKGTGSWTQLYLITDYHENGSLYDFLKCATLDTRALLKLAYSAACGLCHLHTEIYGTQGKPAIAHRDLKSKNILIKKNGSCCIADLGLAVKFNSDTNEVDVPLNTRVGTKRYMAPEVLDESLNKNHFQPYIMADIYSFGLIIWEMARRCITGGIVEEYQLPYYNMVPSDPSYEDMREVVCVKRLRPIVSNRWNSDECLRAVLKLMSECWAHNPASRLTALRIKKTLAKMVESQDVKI

Take `CNc1c(-c2cnn([C@H]3CCN(C(C)=O)C[C@@H]3F)c2)cnc2[nH]cc(Cl)c12` [Compound 77, 1-((3S,4S)-4-(4-(3-chloro-4-(methylamino)-1H-pyrrolo[2,3-b]pyridin-5-yl)-1H-pyrazol-1-yl)-3-fluoropiperidin-1-yl)ethan-1-one]: the remaining binding at 1 µM at BMPR1A was determined as 93%; at BMPR2, 40%; at CAMK2A, 100%; at LIMK1 it was 100%; at MARK3 it was 82%; at NEK5, 79%. Also, the remaining binding at 1 µM at PIK3CA(E545K) amounted to 18%; at PIM3 it was 99%; on WNK1 it was 67%.

For the compound `CNc1c(-c2ccc(C(=O)N3CCC(N4CCOCC4)CC3)cc2)cnc2[nH]cc(Cl)c12` [Compound 96, (4-(3-chloro-4-(methylamino)-1H-pyrrolo[2,3-b]pyridin-5-yl)phenyl)(4-morpholinopiperidin-1-yl)methanone], the remaining binding at 1 µM turned out to be 66% at BMPR1A; 53% at BMPR2; 96% on CAMK2A; 100% at LIMK1; 84% at MARK3; 99% on NEK5. Moreover, the remaining binding at 1 µM at PIK3CA(E545K) was found to be 31%; at PIM3, 100%; on WNK1, 80%.

As to `O=C(c1ccc(-c2cnc3[nH]cc(Cl)c3c2NC2CCCC2)cc1)N1CCC(N2CCOCC2)CC1` [Compound 101, (4-(3-chloro-4-(cyclopentylamino)-1H-pyrrolo[2,3-b]pyridin-5-yl)phenyl)(4-morpholinopiperidin-1-yl)methanone], the remaining binding at 1 µM on BMPR1A came out at 87%; at BMPR2 it was 98%; at CAMK2A, 92%; at LIMK1 it was 76%; on MARK3 it was 89%; on NEK5, 99%. For the same compound, the remaining binding at 1 µM at PIK3CA(E545K) was found to be 79%; on PIM3, 96%; on WNK1, 90%.
